Measurements taken from paper PMC6451765 (Journal of biomolecular structure & dynamics, 2013).

Target: 5-HT2B (Homo sapiens, UniProt P41595)
Type: binding

5-HT2B, sequence (P41595 whole entry): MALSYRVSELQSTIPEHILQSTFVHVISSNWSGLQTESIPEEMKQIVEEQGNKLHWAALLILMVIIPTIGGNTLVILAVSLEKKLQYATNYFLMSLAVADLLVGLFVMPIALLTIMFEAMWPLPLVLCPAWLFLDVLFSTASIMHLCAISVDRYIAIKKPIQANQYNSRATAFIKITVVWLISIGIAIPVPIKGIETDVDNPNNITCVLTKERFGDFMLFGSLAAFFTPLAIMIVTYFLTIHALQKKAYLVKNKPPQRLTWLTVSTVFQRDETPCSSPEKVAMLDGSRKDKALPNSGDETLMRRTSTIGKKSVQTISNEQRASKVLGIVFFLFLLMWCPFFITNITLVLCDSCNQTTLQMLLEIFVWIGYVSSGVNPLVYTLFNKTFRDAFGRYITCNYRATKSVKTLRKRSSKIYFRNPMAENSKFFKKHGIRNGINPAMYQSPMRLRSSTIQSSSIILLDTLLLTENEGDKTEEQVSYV

SMILES | Ki [µM]
CC(C)c1cccc(C(C)C)c1O [P, propofol] | 0.95
FC(F)OC(Cl)C(F)(F)F (centres unmarked) [I, isoflurane] | 7.78
